Measured values taken from patent publication US12195427B2, “MASP-2 inhibitors and methods of use” (priority 2018, dated 2025).

Target: MASP-2 CCP2-SP (Homo sapiens (Human), UniProt O00187)
Test: MASP-2 co-crystallization, X-ray crystallography and structure analysis (H-bonds, van der Waals contacts);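 as to Ligand-pharmacophore element distance, pharmacophore element C2: distance from averaged pharmacophore element to bound ligand; missing value means element absent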;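 as to Ligand-pharmacophore element distance, pharmacophore element C3: distance from averaged pharmacophore element to bound ligand; missing value means element absent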;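 as to Ligand-pharmacophore element distance, pharmacophore element C4: distance from averaged pharmacophore element to bound ligand; missing value means element absent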;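 as to Ligand-pharmacophore element distance, pharmacophore element C5: distance from averaged pharmacophore element to bound ligand; missing value means element absent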
Set-up: van der Waals contact distance, MASP-2 HIS 483 atom CD2 / van der Waals contact distance, MASP-2 HIS 483 atom NE2 / van der Waals contact distance, SER 654 C to compound atom / van der Waals contact distance, SER 654 O to compound atom / van der Waals contact distance, TRP 655 C to compound atom / van der Waals contact distance, MASP-2 GLY 528 atom CA / van der Waals contact distance TRP 655 atom CZ3 / van der Waals contact distance TRP 655 atom N / van der Waals contact distance TRP 655 atom CE3 / van der Waals contact distance GLY 656 atom C / van der Waals contact distance GLY 656 atom CA / van der Waals contact distance GLY 656 atom O / van der Waals contact distance, MASP-2 TYR 607 atom CD1 / van der Waals contact distance, MASP-2 PRO 606 atom O / d(C3,CA1) / d(CA1,N1)2 / d(H4,O1) / d(H4,O2) / d(O1,O2) / d(CA1,O2) / d(CA6,O1) / d(CA6,O2) / d(CA1,C5) / d(O2,H3) / d(N2,C2) / d(CA5,N2) / d(N2,C4) / d(N2,C6) / d(N2,CA3) / d(N2,O3) / d(O4,H2): unit not given beside the values
Conditions: for Ligand-pharmacophore element distance, pharmacophore element C2 / Ligand-pharmacophore element distance, pharmacophore element C3 / Ligand-pharmacophore element distance, pharmacophore element C4 / Ligand-pharmacophore element distance, pharmacophore element C5 / Ligand-pharmacophore element distance, pharmacophore element C6 / Ligand-pharmacophore element distance, pharmacophore element C7 / Ligand-pharmacophore element distance, pharmacophore element CA1 / Ligand-pharmacophore element distance, pharmacophore element CA2 / Ligand-pharmacophore element distance, pharmacophore element CA3 / Ligand-pharmacophore element distance, pharmacophore element CA4 / Ligand-pharmacophore element distance, pharmacophore element CA5 / Ligand-pharmacophore element distance, pharmacophore element CA6: Table A4-1; for a(N1, CA1, O1) b): Methyl-amino-pyridine compounds
Summary of the method: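 Soaked crystals of recombinant CCP2-SP (E. coli) yield the structures, phased by molecular replacement on 1Q3X pieces. Hydrophobic or nonbonded contacts can also cover atom pairs that are potential hydrogen bonds.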

[1] = Table A5-1 pharmacophore: distance between elements, S2/S1 region
[2] = Table A5-2 pharmacophore distance, S3/S4 region
[3] = Table A7-1, between pharmacophore elements of the bound compound
[4] = Table A7-2, between pharmacophore elements of the bound compound
[5] = Table A8-6, nearest protein atom in cell to the left

Sequence of MASP-2 CCP2-SP (O00187 445-686): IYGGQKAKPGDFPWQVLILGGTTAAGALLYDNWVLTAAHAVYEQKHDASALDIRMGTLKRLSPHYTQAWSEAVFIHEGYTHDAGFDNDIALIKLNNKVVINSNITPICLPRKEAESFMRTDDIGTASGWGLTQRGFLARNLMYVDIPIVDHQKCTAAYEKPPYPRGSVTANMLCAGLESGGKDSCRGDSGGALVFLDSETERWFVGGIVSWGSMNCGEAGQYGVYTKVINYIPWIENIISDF
Sequence of MASP-2 CCP2-SP (O00187 364-432 partner): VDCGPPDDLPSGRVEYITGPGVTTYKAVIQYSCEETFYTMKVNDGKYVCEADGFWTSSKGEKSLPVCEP

C[C@H](NC(=O)[C@@H](CCc1ccccc1)NCc1ccc(C(=O)N2CCOCC2)cc1)C(=O)NCc1ccc(C(=N)N)cc1.Cl.Cl [1153_B]
Ligand-pharmacophore element distance, pharmacophore element C2: 10.14 | Ligand-pharmacophore element distance, pharmacophore element C3: 0 | Ligand-pharmacophore element distance, pharmacophore element C4: 0 | Ligand-pharmacophore element distance, pharmacophore element C5: 0 | Ligand-pharmacophore element distance, pharmacophore element C6: 0 | Ligand-pharmacophore element distance, pharmacophore element C7: 0 | Ligand-pharmacophore element distance, pharmacophore element CA1: 0.39 | Ligand-pharmacophore element distance, pharmacophore element CA2: 0.58 | Ligand-pharmacophore element distance, pharmacophore element CA3: 0 | Ligand-pharmacophore element distance, pharmacophore element CA4: 0 | Ligand-pharmacophore element distance, pharmacophore element CA5: 6.17 | Ligand-pharmacophore element distance, pharmacophore element CA6: 0 | d(CA1,N1) [1]: 3.54 | d(CA1,O1) [1]: 5.51 | d(CA1,O2) [1]: 8.18 | d(H4,O1) [1]: 5.77 | d(H4,O2) [1]: 7.90 | d(O1,O2) [1]: 9.57 | d(CA5,N2) [2]: 3.75 | d(N2,C2) [2]: 8.53 | d(N2,CA2) [2]: 5.06 | d(N2,O3) [2]: 9.72 | d(O2,H3) [2]: 3.10 | d(O2,N2) [2]: 2.99 | a(CA1, O1, O2) (Table A6-1 pharmacophore angle): 144.91 | a(O1, O2, H4) (Table A6-1 pharmacophore angle): 92.62 | A(N1, CA1, O1) a) (Table A6-1 pharmacophore angle, all compounds with protonatable center N1 except Methyl-amino-pyridine): 171.50 | a(O1, O2, H3) (Table A6-2 pharmacophore angle): 25.95 | a(O1, O2, N2) (Table A6-2 pharmacophore angle): 44.76 | a(O2, N2, C2) (Table A6-2 pharmacophore angle): 163.28 | a(O2, N2, CA2) (Table A6-2 pharmacophore angle): 150.51 | a(O2, N2, O3) (Table A6-2 pharmacophore angle): 165.3 | Pharmacophore torsion angle a(H4, O1, O2, H3) [3]: 70.64 | Pharmacophore torsion angle a(H4, O1, O2, N2) [3]: 133.70 | Pharmacophore torsion angle a(N1, CA1, O2, H4) [3]: 56.56 | Pharmacophore torsion angle a(O1, H4, O2, CA1) [3]: 23.08 | Pharmacophore torsion angle a(O1, O2, N2, C2) [3]: −139.94 | Pharmacophore torsion angle a(O1, O2, N2, CA2) [4]: 76.90 | Pharmacophore torsion angle a(O1, O2, N2, CA5) [4]: −161.98 | Pharmacophore torsion angle a(O1, O2, N2, O3) [4]: −144.09 | Pharmacophore protein distance to MET_658 (first MET_658 column) (Table A8-6, 6th residue column, nearest protein atom in cell to the left): 2.53 | Pharmacophore protein distance to MET_658 (second MET_658 column) (Table A8-6, 9th residue column, nearest protein atom in cell to the left): 3.26 | Pharmacophore protein distance to GLY_528 [5]: 3.41 | Pharmacophore protein distance to PHE_529 [5]: 3.23 | Pharmacophore protein distance to PRO_608 [5]: 4.41 | Pharmacophore protein distance to SER_611 [5]: 2.46 | Pharmacophore protein distance to TRP_655 (Table A8-6, pharmacophore elements C6, CA3, O3, H1, nearest protein atom in cell to the left): 3.42

Cc1nc(N)ccc1CNC(=O)C(C)NC(=O)C1CC(c2cccc3ccccc23)CCN1.Cl.Cl (centres unmarked) [1297_1]
Ligand-pharmacophore element distance, pharmacophore element C2: 0.34 | Ligand-pharmacophore element distance, pharmacophore element C3: 0.3 | Ligand-pharmacophore element distance, pharmacophore element C4: 0 | Ligand-pharmacophore element distance, pharmacophore element C5: 0 | Ligand-pharmacophore element distance, pharmacophore element C6: 0 | Ligand-pharmacophore element distance, pharmacophore element C7: 0 | Ligand-pharmacophore element distance, pharmacophore element CA1: 0.39 | Ligand-pharmacophore element distance, pharmacophore element CA2: 0.19 | Ligand-pharmacophore element distance, pharmacophore element CA3: 0 | Ligand-pharmacophore element distance, pharmacophore element CA4: 1.24 | Ligand-pharmacophore element distance, pharmacophore element CA5: 0 | Ligand-pharmacophore element distance, pharmacophore element CA6: 0 | d(C3,CA1) [1]: 2.87 | d(CA1,N1)2 [1]: 1.39 | d(CA1,O1) [1]: 4.35 | d(CA1,O2) [1]: 3.86 | d(H4,O1) [1]: 4.31 | d(H4,O2) [1]: 3.81 | d(O1,O2) [1]: 3.46 | d(N2,C2) [2]: 1.44 | d(N2,CA2) [2]: 5.68 | d(O2,H3) [2]: 4.23 | d(O2,N2) [2]: 2.71 | a(C3, CA1, O1) (Table A6-1 pharmacophore angle): 149.59 | a(CA1, O1, O2) (Table A6-1 pharmacophore angle): 107.14 | a(O1, O2, H4) (Table A6-1 pharmacophore angle): 130.08 | a(N1, CA1, O1) b) (Table A6-1 pharmacophore angle): 174.57 | a(O1, O2, H3) (Table A6-2 pharmacophore angle): 144.22 | a(O1, O2, N2) (Table A6-2 pharmacophore angle): 143.88 | a(O2, N2, C2) (Table A6-2 pharmacophore angle): 130.88 | a(O2, N2, CA2) (Table A6-2 pharmacophore angle): 156.06 | Pharmacophore torsion angle a(C3, CA1, O1, H4) [3]: 30.15 | Pharmacophore torsion angle a(H4, O1, O2, H3) [3]: 50.42 | Pharmacophore torsion angle a(H4, O1, O2, N2) [3]: 137.09 | Pharmacophore torsion angle a(N1, CA1, O1, H4) [3]: 26.85 | Pharmacophore torsion angle a(O1, H4, O2, CA1) [3]: −85.98 | Pharmacophore torsion angle a(O1, O2, N2, C2) [3]: 117.40 | Pharmacophore torsion angle a(O1, O2, N2, CA2) [4]: 131.38 | Pharmacophore torsion angle a(O1, O2, N2, CA4) [4]: 110.58

Cc1nc(N)ccc1CNC(=O)[C@H](C)NC(=O)[C@H]1C[C@@H](c2cccc3ccccc23)CCN1.Cl.Cl [1297_2]
Ligand-pharmacophore element distance, pharmacophore element C2: 0.34 | Ligand-pharmacophore element distance, pharmacophore element C3: 0.17 | Ligand-pharmacophore element distance, pharmacophore element C4: 0 | Ligand-pharmacophore element distance, pharmacophore element C5: 0 | Ligand-pharmacophore element distance, pharmacophore element C6: 0 | Ligand-pharmacophore element distance, pharmacophore element C7: 0 | Ligand-pharmacophore element distance, pharmacophore element CA1: 0.47 | Ligand-pharmacophore element distance, pharmacophore element CA2: 0.22 | Ligand-pharmacophore element distance, pharmacophore element CA3: 0 | Ligand-pharmacophore element distance, pharmacophore element CA4: 1.25 | Ligand-pharmacophore element distance, pharmacophore element CA5: 0 | Ligand-pharmacophore element distance, pharmacophore element CA6: 0 | d(C3,CA1) [1]: 2.88 | d(CA1,N1)2 [1]: 1.37 | d(CA1,O1) [1]: 4.48 | d(CA1,O2) [1]: 3.69 | d(H4,O1) [1]: 4.41 | d(H4,O2) [1]: 3.62 | d(O1,O2) [1]: 3.57 | d(N2,C2) [2]: 1.47 | d(N2,CA2) [2]: 5.78 | d(O2,H3) [2]: 3.98 | d(O2,N2) [2]: 2.84 | a(C3, CA1, O1) (Table A6-1 pharmacophore angle): 150.01 | a(CA1, O1, O2) (Table A6-1 pharmacophore angle): 103.93 | a(O1, O2, H4) (Table A6-1 pharmacophore angle): 128.26 | a(N1, CA1, O1) b) (Table A6-1 pharmacophore angle): 174.54 | a(O1, O2, H3) (Table A6-2 pharmacophore angle): 144.48 | a(O1, O2, N2) (Table A6-2 pharmacophore angle): 141.45 | a(O2, N2, C2) (Table A6-2 pharmacophore angle): 127.48 | a(O2, N2, CA2) (Table A6-2 pharmacophore angle): 154.79 | Pharmacophore torsion angle a(C3, CA1, O1, H4) [3]: 29.10 | Pharmacophore torsion angle a(H4, O1, O2, H3) [3]: 51.75 | Pharmacophore torsion angle a(H4, O1, O2, N2) [3]: 141.21 | Pharmacophore torsion angle a(N1, CA1, O1, H4) [3]: 23.27 | Pharmacophore torsion angle a(O1, H4, O2, CA1) [3]: −87.24 | Pharmacophore torsion angle a(O1, O2, N2, C2) [3]: 116.16 | Pharmacophore torsion angle a(O1, O2, N2, CA2) [4]: 126.84 | Pharmacophore torsion angle a(O1, O2, N2, CA4) [4]: 106.20

Cc1nc(N)ccc1CNC(=O)C(C)NC(=O)C1CC(c2cccc3ccccc23)CCN1.Cl.Cl (centres unmarked) [1297_3]
Ligand-pharmacophore element distance, pharmacophore element C2: 0.28 | Ligand-pharmacophore element distance, pharmacophore element C3: 0.23 | Ligand-pharmacophore element distance, pharmacophore element C4: 0 | Ligand-pharmacophore element distance, pharmacophore element C5: 0 | Ligand-pharmacophore element distance, pharmacophore element C6: 0 | Ligand-pharmacophore element distance, pharmacophore element C7: 0 | Ligand-pharmacophore element distance, pharmacophore element CA1: 0.33 | Ligand-pharmacophore element distance, pharmacophore element CA2: 0.22 | Ligand-pharmacophore element distance, pharmacophore element CA3: 0 | Ligand-pharmacophore element distance, pharmacophore element CA4: 0.94 | Ligand-pharmacophore element distance, pharmacophore element CA5: 0 | Ligand-pharmacophore element distance, pharmacophore element CA6: 0 | d(C3,CA1) [1]: 2.85 | d(CA1,N1)2 [1]: 1.39 | d(CA1,O1) [1]: 4.43 | d(CA1,O2) [1]: 3.92 | d(H4,O1) [1]: 4.37 | d(H4,O2) [1]: 3.85 | d(O1,O2) [1]: 3.55 | d(N2,C2) [2]: 1.43 | d(N2,CA2) [2]: 5.64 | d(O2,H3) [2]: 4.22 | d(O2,N2) [2]: 2.72 | a(C3, CA1, O1) (Table A6-1 pharmacophore angle): 150.32 | a(CA1, O1, O2) (Table A6-1 pharmacophore angle): 107.42 | a(O1, O2, H4) (Table A6-1 pharmacophore angle): 129.38 | a(N1, CA1, O1) b) (Table A6-1 pharmacophore angle): 174.78 | a(O1, O2, H3) (Table A6-2 pharmacophore angle): 143.41 | a(O1, O2, N2) (Table A6-2 pharmacophore angle): 144.44 | a(O2, N2, C2) (Table A6-2 pharmacophore angle): 132.31 | a(O2, N2, CA2) (Table A6-2 pharmacophore angle): 156.50 | Pharmacophore torsion angle a(C3, CA1, O1, H4) [3]: 28.95 | Pharmacophore torsion angle a(H4, O1, O2, H3) [3]: 50.29 | Pharmacophore torsion angle a(H4, O1, O2, N2) [3]: 141.16 | Pharmacophore torsion angle a(N1, CA1, O1, H4) [3]: 22.83 | Pharmacophore torsion angle a(O1, H4, O2, CA1) [3]: −86.03 | Pharmacophore torsion angle a(O1, O2, N2, C2) [3]: 114.36 | Pharmacophore torsion angle a(O1, O2, N2, CA2) [4]: 129.56 | Pharmacophore torsion angle a(O1, O2, N2, CA4) [4]: 108.64
